Our source for the Mouse Liver Microsomal Clearance (Cli; µL/min/mg) and IC50 values is patent EP3290417A1, “2-CHLORO-N-[2-(1,3-THIAZOL-5-YL)ETHYL]-5-(5-FLUOROPYRIMIDIN-2-YL)-BENZAMIDES AND THEIR USE AS P2X7 RECEPTOR ANTAGONISTS” (AXXAM S.p.A., priority 2016, dated 2018).

Usually IC50 stands for the concentration that inhibits the measured activity by half.

A short description of data set [1]: metabolic stability in mouse liver microsomes. The data set is classed as in vitro ADME. Particulars: 1 µM test compound, 1 mg/mL protein, pH 7.4, 0-60 minutes. As for the experimental part:
In vitro evaluation of test compounds for metabolic stability using Rat or Mouse liver
Test System Rat or Mouse Liver Microsomes
• Test compound concentration: 1 µM • Time Points: 0, 5, 10, 30 and 60 minutes • Final Protein concentration: 1 mg/mL • Number of Replicates: Two • Potassium Phosphate Buffer pH 7.4 100 mM • End Point: % Remaining of Test compound, Half life, Clint • Bioanalysis by LC-MS/MS
10 mM stock solution of test compound were prepared in DMSO and dilute with water: acetonitrile (1:1) to a concentration of 1 mM. Working concentration of 100 µM were prepared by further dilution with water: acetonitrile (1: 1).
100 mL of Milli Q water will be added to K2HPO4 (1.398 g) and KH2PO4 (0.27 g) to get final pH 7.4.
Preincubation mixtures: 2.5 µL Test Cpd. + 75 µL Liver microsomes @ 3.33 mg/mL + 85 µL of 100 mM potassium phosphate buffer (Preincubate for 10 min @ 37°C)
60 min w/o cofactor: 32.5 µL of Preincubation mixture + 17.5 µL of 100 mM potassium phosphate buffer (Incubate for 60 min @ 37°C)
0 min sample: 16.25 µL of Preincubation mixture + 200 µL of acetonitrile containing internal standard + 8.75 µL of cofactor Incubation mixture 62 µL of cofactor (2.5 mM) + Remaining incubation mixture (Incubated for 60 min@ 37°C).
Sample preparation: 25 µL incubation mixture + 200 µL of acetonitrile containing internal standard + Vortex 5 min @ 1200 rpm + Centrifuge 10 min @ 4000 rpm. […]
(In general: Microsomes from liver hold many membrane-bound enzymes, among them those of drug oxidation.)

A further data set has as its target T1, human P2X7 channel (Homo sapiens, UniProt Q99572).
T1 construct: expressed in transfected cells; host or cells: HEK-293
T1 sequence (Q99572 1-595): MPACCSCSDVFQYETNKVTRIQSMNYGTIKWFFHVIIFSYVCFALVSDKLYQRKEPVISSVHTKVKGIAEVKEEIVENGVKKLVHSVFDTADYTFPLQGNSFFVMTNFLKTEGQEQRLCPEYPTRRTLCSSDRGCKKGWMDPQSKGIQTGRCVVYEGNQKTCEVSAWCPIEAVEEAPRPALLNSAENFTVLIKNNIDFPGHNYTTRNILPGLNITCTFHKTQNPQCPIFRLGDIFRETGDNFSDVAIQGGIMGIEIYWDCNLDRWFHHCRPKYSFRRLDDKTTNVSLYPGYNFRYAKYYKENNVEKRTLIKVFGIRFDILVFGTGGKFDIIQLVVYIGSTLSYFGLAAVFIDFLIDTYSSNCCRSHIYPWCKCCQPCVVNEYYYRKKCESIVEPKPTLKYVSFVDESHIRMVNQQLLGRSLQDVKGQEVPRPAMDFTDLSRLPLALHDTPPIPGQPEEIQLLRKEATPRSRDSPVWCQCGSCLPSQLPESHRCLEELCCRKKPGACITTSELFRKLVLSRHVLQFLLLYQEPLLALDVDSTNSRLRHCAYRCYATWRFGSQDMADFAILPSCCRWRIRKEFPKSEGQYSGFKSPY
The experiment in a line: human P2X7 channel assay by automated patch-clamp (QPatch16X, whole-cell voltage clamp). Type of data set: cell-based. Particulars: HEK-293 cells expressing the P2X7 channels; current evoked by 100 microM BzATP; held at -80 mV; room temperature; read-out: hP2X7 (IC50; nM). As for the experimental part:
In order to directly monitor the block of P2X7 channel, an electrophysiological assay was developed and implemented on the QPatch16X automated electrophysiology instrument.
HEK-293 cells expressing the P2X7 channels were cultured in modified EMEM.
72 hours before experiment, 5 million cells were seeded onto T225 flasks. Just before the experiment cells were washed twice, detached from the flask with trypsin-EDTA, re-suspended in the suspension solution and placed on the QPatch 16x.
The compounds (20 mM in a 100% DMSO) stored at -20°C were prepared the day of the experiment (a first dilution 1:20 in 100% DMSO to prepare a 1 mM stock solution, then a 1 microM solution in external solution + a serial dilution 1:10).
The standard whole-cell voltage clamp experiments were performed at room temperature. For these experiments the multihole technology was used and the data were sampled at 2 KHz.
The intracellular solution contained (mM) 135 CsF, 10 NaCl, 1 EGTA, 10 HEPES, (pH 7.2 with CsOH) whereas the extracellular contained (mM) 145 NaCl, 4 KCl, 0.5 MgCl2, 1 CaCl2, 10 HEPES, 10 Glc (pH 7.4 with NaOH).
After establishment of the seal and the passage in the whole cell configuration, the cells were held at -80 mV. The P2XR7 current was evoked by applying 100 microM of BzATP alone (4 times) and then in the presence increasing concentrations of the compound under investigation (1, 10, 100 and 1000 nM).
The pre-incubation periods 5 to 8 contain increasing concentrations of the compound of interest (1, 10, 100 and 1000 nM), as illustrated in Figure.
The maximal inward current evoked by BzATP in absence or presence of increasing concentrations of the compounds under investigation was measured and normalized. The potential modulatory effect was measured as % of control and as IC50 determined fitting the dose-response curves data with the following equation: Y = 100/(1+10^(∧)((LogIC50−X)*HillSlope)) [formula] where: • X: log of concentration • Y: normalized response, 100% down to 0%, decreasing as X increases. • LogIC50: same log units as X • HillSlope: slope factor or HS, unitless

Another data set addresses T2, rat P2X7R (Rattus norvegicus, UniProt Q64663).
T2 construct: expressed in transfected cells; host or cells: HEK-293 (stably transfected)
T2 sequence (Q64663 1-595): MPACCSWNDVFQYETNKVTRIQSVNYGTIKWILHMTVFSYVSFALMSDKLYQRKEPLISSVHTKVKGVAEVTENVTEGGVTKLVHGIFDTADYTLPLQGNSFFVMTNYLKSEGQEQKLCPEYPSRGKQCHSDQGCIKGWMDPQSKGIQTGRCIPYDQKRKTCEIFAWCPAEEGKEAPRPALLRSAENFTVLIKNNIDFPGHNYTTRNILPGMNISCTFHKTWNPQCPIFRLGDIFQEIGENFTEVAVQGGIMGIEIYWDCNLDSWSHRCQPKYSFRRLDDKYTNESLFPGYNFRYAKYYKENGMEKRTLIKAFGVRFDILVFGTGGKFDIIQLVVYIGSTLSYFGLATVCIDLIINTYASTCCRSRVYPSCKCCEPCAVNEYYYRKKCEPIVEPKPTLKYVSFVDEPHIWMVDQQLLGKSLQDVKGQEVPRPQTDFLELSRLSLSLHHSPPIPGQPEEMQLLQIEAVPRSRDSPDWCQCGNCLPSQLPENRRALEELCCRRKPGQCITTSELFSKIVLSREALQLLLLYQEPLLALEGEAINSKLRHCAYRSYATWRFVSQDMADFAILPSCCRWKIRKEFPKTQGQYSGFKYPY
Briefly: rat P2X7 Ca2+ influx assay, Screen Quest Fluo-8 No Wash Calcium Assay Kit (FLIPRTETRA). Particulars: HEK-293 cells stably transfected with rat P2X7R; BzATP at ~EC80; 5' incubation with compound; read-out: rP2X7 (IC50; nM). Type of data set: cell-based. As for the experimental part:
Ca^2+ influx was measured in HEK-293 cells stably transfected with the receptor using Screen Quest™ Fluo-8 No Wash Calcium Assay Kit (AAt Bioquest®). Briefly, once inside the cells, the lipophilic blocking groups of Fluo-8 are cleaved by non-specific cell esterases, resulting in a negatively-charged fluorescent-dye that stays inside cells. Its fluorescence increases upon binding to calcium. When HEK-293/P2X7 cells were stimulated with BzATP, Ca^2+ entered the cells and the fluorescence of Fluo-8 NW increaseed. The dye absorption spectrum was compatible with excitation at 488 nm by argon laser sources and its emission wavelength was in the range of 515-575 nm. […]
Compounds were tested at FLIPRTETRA according to the following method: • first injection at FLIPRTETRA of 10 µL of 3x test compound (in Tyrode's buffer 0.3 mM Ca^2+ / Mg^2+-free + DMSO 0.5% final concentration) • 5' incubation • second injection at FLIPRTETRA of 15 µL of 3x BzATP at ∼EC80 (in Tyrode's buffer 0.3 mM Ca^2+ / Mg^2+-free + BSA 0.0003% final concentration) • Fluorescence recording for 3' […]
The effect of the test compounds was measured as percent inhibition vs the reference antagonist and IC50 values were calculated accordingly.

Take `O=C(NCC(c1scnc1CF)N1CCC(F)(F)CC1)c1cc(-c2ncc(F)cn2)ccc1Cl` (centres unmarked) [Compound 6, 2-chloro-N-{2-[4-(fluoromethyl)-1,3-thiazol-5-yl]-2-(4,4-difluoropiperidin-1-yl)ethyl}-5-(5-fluoropyrimidin-2-yl)benzamide]: in data set [1], the Mouse Liver Microsomal Clearance (Cli; µL/min/mg) came to 47.3 µL/min/mg. The half-inhibitory concentration (IC50) on human P2X7 channel stood at 33.3 nM.

Take `O=C(NCC(c1scnc1CO)N1CCC(F)(F)CC1)c1cc(-c2ncc(F)cn2)ccc1Cl` (centres unmarked) [Compound 5, 2-chloro-N-{2-[4-(hydroxymethyl)-1,3-thiazol-5-yl]-2-(4,4-difluoropiperidin-1-yl)ethyl}-5-(5-fluoropyrimidin-2-yl)benzamide]: the half-maximal inhibitory concentration (IC50) on human P2X7 channel worked out at 64.6 nM.

In the case of `O=C(NCC(c1cnc(C(F)F)s1)N1CCOCC1)c1cc(-c2ncc(F)cn2)ccc1Cl` (single isomer, unassigned; (-)) [Compound 3, (-)-2-chloro-N-{2-[2-(difluoromethyl)-1,3-thiazol-5-yl]-2-(morpholin-4-yl)ethyl}-5-(5-fluoropyrimidin-2-yl)benzamide], the half-maximal inhibitory concentration (IC50) was determined as 27 nM on human P2X7 channel and 48 nM on rat P2X7R. For `O=C(NCC(c1cnc(CF)s1)N1CCOCC1)c1cc(-c2ncc(F)cn2)ccc1Cl` (centres unmarked) [Compound 7, 2-chloro-N-{2-[2-(fluoromethyl)-1,3-thiazol-5-yl]-2-(morpholin-4-yl)ethyl}-5-(5-fluoropyrimidin-2-yl)benzamide], the half-maximal inhibitory concentration (IC50) at human P2X7 channel stood at 38.3 nM. Same read-out and setting: the result for `C#Cc1ncc(C(CNC(=O)c2cc(-c3ncc(F)cn3)ccc2Cl)N2CCC(F)(F)CC2)s1` (centres unmarked) [Compound 9, 2-chloro-N-[2-(4,4-difluoropiperidin-1-yl)-2-(2-ethynyl-1,3-thiazol-5-yl)ethyl]-5-(5-fluoropyrimidin-2-yl)benzamide] reads 39.2 nM; that for `O=C(NCC(c1cnc(CF)s1)N1CCC(F)(F)CC1)c1cc(-c2ncc(F)cn2)ccc1Cl` (centres unmarked) [Compound 8, 2-chloro-N-{2-[2-(fluoromethyl)-1,3-thiazol-5-yl]-2-(4,4-difluoropiperidin-1-yl)ethyl}-5-(5-fluoropyrimidin-2-yl)benzamide], 20.3 nM. As for `O=C(NCC(c1cnc(C(F)F)s1)N1CCOCC1)c1cc(-c2ncc(F)cn2)ccc1Cl` (racemic) [Compound 1, (±)-2-chloro-N-{2-[2-(difluoromethyl)-1,3-thiazol-5-yl]-2-(morpholin-4-yl)ethyl}-5-(5-fluoropyrimidin-2-yl)benzamide], the IC50 worked out at 47.1 nM at human P2X7 channel and 66 nM at rat P2X7R. As for “2-chloro-N-{2-[4-(cyclopropyl)-1,3-thiazol-5-yl]-2-(4,4-difluoropiperidin-1-yl)ethyl}-5-(5-fluoropyrimidin-2-yl)benzamide [Compound 4]”, the IC50 at human P2X7 channel came to 103 nM.
